Where a name gives a salt, the structure may show the parent alone.

`Fc1ccc(-c2ncc(-c3cccnc3)[nH]2)cc1` (as salt: HCl) [Preparation example 22]: the melting point lay within 192 to 195 °C.

Regarding `NC(=O)Cc1nc(-c2ccc(F)cc2)[nH]c1-c1ccsc1` [Preparation example 44], the melting point is 200 to 202 °C (dec.).

Molecule `CCOC(=O)Cc1nc(-c2cccc(C)c2)oc1-c1cccs1` [Preparation Example 427] showed a melting point of 80 to 81 °C.

The molecule `CCc1nc(-c2csc(Cl)c2)[nH]c1-c1cccnc1` (as salt: HCl) [Preparation example 55] registered a melting point of 205 to 207 °C.

The molecule `CCOC(=O)c1cc(-c2nc(CC)c(-c3cccnc3)[nH]2)cs1` [Preparation example 11] came in with a melting point of 187 to 189 °C.

`CCCc1nc(-c2cc(Cl)cs2)[nH]c1-c1ccccc1` (as salt: HCl) [Preparation example 40] registered a melting point of 188 to 190 °C.

Regarding `O=CCCNc1[nH]c(-c2ccc(F)cc2)nc1-c1ccccc1` [Preparation example 111, 5-formylethylamino-2-(4-fluorophenyl)-4-phenylimidazole], the melting point lay in the range of 201 to 202 °C.

In turn, `CCCc1nc(-c2ccc3ccccc3c2)[nH]c1-c1ccccc1` (as salt: HCl) [Preparation example 32] came in with a melting point of 189 to 190 °C.

With `CCCc1nc(-c2ccc(F)cc2)[nH]c1-c1cccc(F)c1` (as salt: HCl) [Preparation example 99], the melting point was in the range of 228 to 230 °C.

`CCCc1nc(-c2ccc(F)cc2)[nH]c1-c1ccc(F)cc1` (as salt: HCl) [Preparation example 87] returned a melting point of 233 to 235 °C.

In turn, `CCc1nc(-c2ccc(C#N)cc2)[nH]c1-c1ccccc1` (as salt: HCl) [Preparation example 27] displayed a melting point of 285 to 288 °C.

With `CCc1nc(-c2ccc(F)cc2)[nH]c1-c1ncccn1` (as salt: HCl) [Preparation example 50], the melting point was in the range of 190 to 192 °C.

`CCOC(=O)Cc1nc(-c2ccc3ncccc3c2)oc1-c1ccsc1` [Preparation Example 411] displayed a melting point of 130 to 133 °C.

With `CCCc1nc(-c2ccc[nH]2)[nH]c1-c1ccccc1` (as salt: HCl) [Preparation example 35], the melting point is 220 to 222 °C.

The molecule `CCOC(=O)Cc1nc(-c2cnc3occc3c2)oc1-c1ccc(Cl)s1` [Preparation Example 429] had a melting point of 145 to 146 °C.

As to `CCc1[nH]c(-c2ccc(C)nc2)nc1-c1cccnc1.Cl.Cl.Cl`, the melting point is 270 to 273 °C (dec.).

On to `CCCc1nc(-c2ccc(C#N)cc2)[nH]c1-c1ccccc1` (as salt: HCl) [Preparation example 31], for which the melting point fell in the range of 258 to 260 °C.

In turn, `CCCc1nc(-c2ccc([N+](=O)[O-])cc2)[nH]c1-c1cccs1` (as salt: HCl) [Preparation example 9] showed a melting point of 278 to 281 °C.

On to `CCCc1c[nH]c(-c2ccc(F)cc2)n1` [Preparation example 76], for which the melting point was 168 to 170 °C.

The molecule `C[S+]([O-])Cc1[nH]c(-c2ccc(F)cc2)nc1-c1ccccc1` (stereo not drawn) (as salt: HCl) [Preparation example 639] displayed a melting point of 203 to 204 °C.

Take `CCOC(=O)Cc1nc(-c2ccc(OC)c(F)c2)oc1-c1cccs1` [Preparation Example 382]: the melting point lay within 117 to 117.5 °C.

The molecule `CCOC(=O)Cc1nc(-c2ccc(F)cc2)oc1-c1cc(C)cs1` [Preparation Example 163] had a melting point of 138 to 139 °C.

In turn, `CCCc1nc(C2CCC(=O)N2)[nH]c1-c1cccs1` (stereo not drawn) (as salt: HCl) [Preparation example 4] gave a melting point of 234 to 237 °C.

For `CNc1[nH]c(-c2ccc(F)cc2)nc1-c1ccccc1` (as salt: hydrochloride) [Preparation example 107, 5-methylamino-2-(4-fluorophenyl)-4-phenylimidazole], the melting point was 253 to 255 °C.

Broadly, the melting point is the temperature, or range, at which the solid turns liquid.
